Source: article PMC11920571, “Esc peptides and derivatives potentiate the activity of CFTR with gating defects and display antipseudomonal activity in cystic fibrosis-like lung disease” (Cellular and Molecular Life Sciences: CMLS, 2025)
Non-standard residues stand in square brackets, D forms with d. Residues, ends and D or L forms follow the SMILES beside them. No end group written: not given here. Aib = CC(C)(N)C(=O)O

Columns and labels:
[1] = system: Gram-negative bacterial strains and Staphylococcus aureus; assay: MIC determination, summary over the strain panel; assay type: cell-based; settings: summary of Table 3
Experimental: Peptides were tested against the Gram-negative Escherichia coli ATCC 25922, Ainetobacter baumannii ATCC 19606, P. aeruginosa ATCC 27853, P. aeruginosa PAO1; and the Gram-positive S. aureus ATCC 25923, MDR#1, MDR#2, MDR#3 and MDR#4. The MIC values were determined as previously reported. Briefly, bacteria were grown at 37 °C in Luria-Bertani broth (LB) until an optical density (OD) of 0.8 was reached (λ=590 nm). Aliquots of bacteria (50 µL) were added to each well of a 96-multiwell plate containing serial dilutions of the tested peptides in Mueller Hinton broth (MH). The final cell concentration was 1x10^6 CFU/ml.

[2] = system: P. aeruginosa PAO1; assay: Co-culture (biotic biofilm) on polarized airway epithelium at ALI; assay type: cell-based; settings: 20 μM peptide in PBS for 2 h; PAO1 grown 6 h on polarized homozygous F508del airway epithelium at ALI; vs PBS
Experimental: This assay was performed using co-cultures of polarized and well-differentiated human bronchial epithelial cells derived from a homozygous F508del patient and P. aeruginosa PAO1 grown to a log phase. Polarized human epithelia in transwell permeable supports and maintained in ALI culture were inoculated with P. aeruginosa PAO1 in 50 µl of cell culture medium (initial inoculum of 200 bacterial cells per ALI culture insert, according to [75]) at the apical side of the supports for 1 h to allow attachment of the bacteria to the epithelium in ALI culture. Unattached bacteria were removed and the supports incubated (37 °C; 5% CO₂) for 5 h prior to the addition of peptide. Each peptide, at 20 μM, diluted in 100 µl PBS, was added for 2 h. After a total of 8 h, the airways surface liquid was collected and aliquots poured on plates for counting. Afterwards, the epithelium was disrupted by adding 150µl Tripsin-EDTA and incubated for 15 min. Subsequently, 200 µl Triton X-100 (0.1%) was added and the supports incubated again for 15 min. Serial dilution and counting of bacterial cells was performed on tryptic soy agar plates to determine the number of CFU.

[3] = system: F508del-CFBE41o- cells; settings: 20 μM peptide, 24 h, CCK-8, absorbance 450 nm
Experimental: The Cell Counting Kit 8 (CCK-8) assay was performed as follows to assess cell viability. About 1×10^4 F508del-CFBE41o- cells were seeded in each well of a 96-well plate and incubated at 37 °C and 5% CO2. After 24 h, the medium was replaced by MEM supplemented with 2 mM L-glutamine and containing each peptide at different concentrations. The plate was incubated for 24 h and subsequently 10 μl of CCK-8 reagent were added to each well. After 2 h incubation, the absorbance of each well was measured at 450 nm using a microplate reader (Infinite M200; Tecan, Salzburg, Austria).

[4] = system: P. aeruginosa PAO1; assay: Murine lung infection model, wild-type littermates; assay type: in vivo, mice; settings: 0.1 mg/kg (20 μM) i.t. 1 h after i.t. ~3 x 10^6 CFU PAO1, lungs at 24 h, three independent experiments
Experimental: (§1) The animal experiments were performed according to a protocol (protocol 23083347) approved by the Institutional Animal Care and Use Committee (IACUC) of the University of Pittsburgh based on the NIH guide for the care and use of laboratory animals. Transgenic mice with expression of the protein-coding region of the mouse Scnn1b (β-ENaC) and driven by rat airway-specific Scgb1a1 (also called the Clara cell secretory protein) gene were previously described and obtained from Dr. Wanda O'Neal from the University of North Carolina at Chapel Hill. β-ENaC mice in C57BL/6 genetic background were maintained in heterozygous conditions and continuously bred with C57BL/6 wild-type mice. Genotyping was performed for all pups to identify their respective genotypes. Mice expressing β-ENaC and their wild-type littermates at the same ages were used for experiments. Seven-week-old female and male mice were anesthetized by isoflurane inhalation and instilled intratracheally with ~3 x 10^6 CFU of P. aeruginosa PAO1 in 50 µl PBS. […] Control mice were given 50 µl of PBS without peptide. After 24 h, lungs were harvested, four right lobes of each mouse lung were homogenised, serial diluted to determine the total lung bacterial burden, according to the published method.

[5] = system: P. aeruginosa PAO1; assay: Murine lung infection model, β-ENaC transgenic mice; assay type: in vivo; settings: for lowering of lung bacterial burden (CFU): 0.1 mg/kg (20 μM) i.t. 1 h after i.t. ~3 x 10^6 CFU PAO1, lungs at 24 h, three independent experiments
Experimental: as §1

[6] = molecular target: T1, G551D-CFTR (Homo sapiens, UniProt P13569, G551D); assay: TEER/transepithelial conductance in G551D-FRT cells; assay type: cell-based; settings: 20 µM FSK + 10 µM peptide, 10 min, n ≥ 6
T1 construct: expressed in transfected cells
Experimental: (§2) To evaluate the effect of the peptides on the ion current controlled by CFTR, the transepithelial conductance was measured in epithelia formed by FRT expressing CFTR with different mutation. Cells were seeded on permeable supports (24 Millicell plates PSHT01QR1) and then incubated in their standard culture medium. Cells expressing F508del mutation were pretreated with 1 μM VX-809 to deliver the defective protein to the plasma membrane. After 24 h, the medium was replaced with saline solution containing (in mM): 130 NaCl, 2.7 KCl, 1.5 KH2PO4, 1 CaCl2, 0.5 MgCl2, 10 glucose, 10 Na-Hepes (pH, 7.4), which was added to both apical and basolateral compartments of the permeable supports. Initially, TEER was measured in basal conditions without CFTR activation, using the epithelial voltmeter (MILLICELL ERS-2, Millipore Burlington, MA). Afterwards, 20 μM FSK + 10 μM GEN (as positive control) or FSK+ peptides at the desired concentration were added on the apical side of the epithelium and TEER measurement was performed at 37 °C after 10 min from the addition of the compounds. Finally, TEER was measured after the addition of 30 μM PPQ102 to the apical side of the epithelium, to inhibit CFTR. From the values of TEER obtained before and after CFTR inhibition, the CFTR-dependent TEER was calculated, for each condition. All TEER values were converted to transepithelial conductance (TEEC) using the formula TEEC = 1/TEER [68].

[7] = molecular target: T2, G1349D-CFTR (Homo sapiens, UniProt P13569, G1349D); assay: TEER/transepithelial conductance in G1349D-FRT cells; assay type: cell-based; settings: 20 µM FSK + 10 µM peptide, 10 min, n ≥ 6
T2 construct: expressed in transfected cells
Experimental: as §2

[8] = system: P. aeruginosa; settings: C57BL/6 mice, i.t. instillation at 0.1 mg/Kg (corresponding to 20 μM); cited from earlier work
Source text: In the last years, we identified two antimicrobial peptides (AMPs), Esculentin-1a(1–21)NH2 [Esc(1–21)] and its diastereomer Esc(1–21)−1c (Esc peptides, Table 1), with a strong activity against the free-living and sessile forms of P. aeruginosa and with the ability to accelerate recovery of damaged bronchial epithelium.

[9] = system: intracellular calcium in null FRT cells; assay: Microplate reader Fluo-4 Ca2+ assay; assay type: cell-based, rat; settings: peptides 10 µM each, UTP 100 µM (Fig. 7) or 10 µM (method), acute addition
Experimental: Experiments for the evaluation of intracellular calcium mobilization were performed using an automated micro-plate reader (FluoStar) equipped with syringe pumps and optical excitation/emission filters (500/535 nm). FRT cells were cultured until confluence in 96-well microplates. Before starting the assay, cells were washed 3 times with complete PBS (200 μl/wash) and then loaded for 1 h at 37 °C with 5 μM Fluo-4/AM (Thermo Fisher Scientific) in PBS containing 10 mM glucose, 0.5 mM sulfinpyrazone and 1% fetal bovine serum. After loading, cells were washed twice with PBS (120 μl/wash) and incubated for 15 min at 37 °C with 100 μl of PBS plus 10 mM glucose and 0.5 mM sulfinpyrazone. The assay was run on one well at a time by programming the plate reader to acquire the fluorescence emitted from each well every 0.2 s for 120 s. At 2.8 s from the start of reading, the plate reader injected 100 μl of PBS (with glucose and sulfinpyrazone) containing vehicle alone (DMSO), peptides (10 µM each) or UTP (10 µM).

T2 sequence (P13569 whole entry G1349D): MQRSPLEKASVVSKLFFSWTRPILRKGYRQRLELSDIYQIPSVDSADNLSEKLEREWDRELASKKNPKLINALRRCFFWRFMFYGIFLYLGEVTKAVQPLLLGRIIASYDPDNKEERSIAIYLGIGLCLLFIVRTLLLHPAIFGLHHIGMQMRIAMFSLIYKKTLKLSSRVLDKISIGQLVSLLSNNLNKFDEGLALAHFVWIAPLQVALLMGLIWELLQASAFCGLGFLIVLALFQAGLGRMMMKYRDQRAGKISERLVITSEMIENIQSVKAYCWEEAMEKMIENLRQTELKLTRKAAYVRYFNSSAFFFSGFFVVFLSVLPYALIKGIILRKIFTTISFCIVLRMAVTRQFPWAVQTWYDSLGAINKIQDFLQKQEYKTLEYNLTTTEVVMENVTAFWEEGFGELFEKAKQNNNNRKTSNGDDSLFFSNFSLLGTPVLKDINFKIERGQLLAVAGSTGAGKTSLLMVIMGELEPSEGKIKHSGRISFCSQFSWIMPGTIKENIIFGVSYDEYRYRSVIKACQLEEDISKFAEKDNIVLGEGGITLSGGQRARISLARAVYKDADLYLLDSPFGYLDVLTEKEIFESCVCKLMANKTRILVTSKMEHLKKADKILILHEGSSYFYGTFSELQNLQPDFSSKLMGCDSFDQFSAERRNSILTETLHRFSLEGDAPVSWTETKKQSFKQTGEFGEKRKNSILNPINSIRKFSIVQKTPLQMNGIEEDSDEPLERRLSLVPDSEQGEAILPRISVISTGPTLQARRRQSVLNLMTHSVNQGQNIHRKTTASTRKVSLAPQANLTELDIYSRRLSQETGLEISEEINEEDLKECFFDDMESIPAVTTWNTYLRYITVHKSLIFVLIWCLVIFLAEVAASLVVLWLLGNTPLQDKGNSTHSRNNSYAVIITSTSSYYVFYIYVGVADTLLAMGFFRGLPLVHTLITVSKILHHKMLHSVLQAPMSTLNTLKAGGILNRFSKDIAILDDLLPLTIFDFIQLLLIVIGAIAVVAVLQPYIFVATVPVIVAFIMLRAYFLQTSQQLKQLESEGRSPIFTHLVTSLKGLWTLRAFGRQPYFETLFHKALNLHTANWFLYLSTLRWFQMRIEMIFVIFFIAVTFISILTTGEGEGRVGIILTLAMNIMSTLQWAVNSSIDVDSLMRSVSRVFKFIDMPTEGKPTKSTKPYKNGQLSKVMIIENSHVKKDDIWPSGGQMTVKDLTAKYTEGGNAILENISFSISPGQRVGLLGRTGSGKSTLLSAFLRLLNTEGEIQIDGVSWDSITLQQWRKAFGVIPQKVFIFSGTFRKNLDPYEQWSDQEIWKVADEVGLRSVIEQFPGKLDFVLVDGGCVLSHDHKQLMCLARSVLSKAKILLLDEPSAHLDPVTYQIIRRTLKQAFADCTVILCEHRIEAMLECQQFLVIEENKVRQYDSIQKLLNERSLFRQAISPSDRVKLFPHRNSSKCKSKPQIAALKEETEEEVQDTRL
T1 sequence (P13569 whole entry G551D): as the sequence (P13569 whole entry G1349D) above, with G551D, D1349G counted along it

CC[C@H](C)[C@H](NC(=O)CN)C(=O)N[C@@H](Cc1ccccc1)C(=O)N[C@@H](CO)C(=O)N[C@@H](CCCCN)C(=O)N[C@@H](CC(C)C)C(=O)N[C@@H](C)C(=O)NC(C)(C)C(=O)N[C@@H](CCCCN)C(=O)N[C@@H](CCCCN)C(=O)N[C@H](C(=O)N[C@@H](CCCCN)C(=O)N[C@@H](CC(N)=O)C(=O)N[C@@H](CC(C)C)C(=O)N[C@@H](CC(C)C)C(=O)N[C@H](C(=O)N[C@@H](CO)C(=O)NCC(=O)N[C@@H](CC(C)C)C(=O)N[C@@H](CCCCN)C(=O)NCC(N)=O)[C@@H](C)CC)[C@@H](C)CC [Esc_Aib-8, [Aib^8]-Esc(1–21)] (H-GIFSKLA[Aib]KKIKNLLISGLKG-NH2; N-terminus assumed)
ability to inhibit bacterial growth, in words [1]: the most active one against Gram-negative bacteria | reduction of bacterial load (ASL plus intracellular CFU) [2]: ~2 log10-unit | viable cells [3]: more than 90% | reduction in the number of lung bacterial cells (CFU) [4]: ~ 2 log10 | lowering of lung bacterial burden (CFU) [5]: ~ 2 log10 | efficacy in lowering lung bacterial load, comparison in words ([5]; 0.1 mg/kg i.t., lungs at 24 h): trend slightly stronger than that of Esc(1–21)−1c

GIFSKLAGKKIKNLLIEGLKG-NH2 [Esc_Glu-17, analog containing L-Glutamic acid at position 17]
variation in CFTR-mediated conductance [6]: no variation in CFTR-mediated conductance | variation in CFTR-mediated conductance [7]: no variation in CFTR-mediated conductance | ability to inhibit bacterial growth, in words [1]: comparable to the reference Esc(1–21)−1c

GIFSKLAGKKIKNLLISGLKG-NH2 [Esc(1–21)−1c, diastereomer of Esc(1–21)]
reduction in the number of lung bacterial cells (CFU) [4]: ~ 2 log10 | lowering of lung bacterial burden (CFU) [5]: ~ 2 log10 | effect on lung bacterial burden [8]: reduce lung bacterial burden

O=c1ccn([C@@H]2O[C@H](COP(=O)(O)OP(=O)(O)OP(=O)(O)O)[C@@H](O)[C@H]2O)c(=O)[nH]1 [UTP]
change in Fluo-4 fluorescence (intracellular calcium) [9]: marked and rapid increase in fluorescence

GIFSKLAGKKIKNLLIEGLKG-NH2 [Esc-1C_DGlu-17, analog containing D-Glutamic acid at position 17]
variation in CFTR-mediated conductance [6]: no variation in CFTR-mediated conductance | variation in CFTR-mediated conductance [7]: no variation in CFTR-mediated conductance | MIC increase versus reference Esc(1–21)−1c [1]: ~ 4 fold

colistin [reference compound]
reduction in the number of lung bacterial cells (CFU) [4]: ~ 2 log10

Gly-Ile-Phe-Ser-Lys-Leu-Ala-Gly-Lys-Lys-Ile-Lys-Asn-Leu-Leu-Ile-phosphoSer-Gly-Leu-Lys-Gly-NH2 [D-phosphoEsc, isoform carrying a D-leucine at position 14 and D-phosphoserine at position 17]
CFTR-mediated conductance (∆G) relative to FSK alone [6]: at least 3 fold | CFTR-mediated conductance (∆G) relative to FSK alone [7]: at least 3 fold
